Experimental data published in ChEMBL document CHEMBL3797055, “Glabridin-chalcone hybrid molecules: drug resistance reversal agent against clinical isolates of methicillin-resistant Staphylococcus aureus” (Medchemcomm, 2016).
In brackets after ≈: the same amount, converted by molar mass.

Experiments:
Staphylococcus aureus [1] = assay: Antibacterial activity against Staphylococcus aureus MTCC 96 infected in ip dosed Swiss mouse assessed as reduction in bacterial load in blood administered qd for 7 days post infection measured 24 hrs after last dose by plate counting analysis; assay type: functional, organism-based
Mus musculus [2] = assay: Toxicity in Swiss mouse infected with Staphylococcus aureus MTCC 96 assessed as morbidity at 12.5 to 100 mg/kg, ip qd for 7 days post infection; assay type: organism-based; settings: in vivo, 168 h
Staphylococcus aureus [3] = assay: Antibacterial activity against Staphylococcus aureus MTCC 96 infected in ip dosed Swiss mouse assessed as reduction in bacterial load in kidney administered qd for 7 days post infection measured 24 hrs after last dose by plate counting analysis; assay type: functional, organism-based
Staphylococcus aureus [4] = assay: Ratio of MIC for clinical isolates of methicillin-resistant Staphylococcus aureus P4650 to MIC for clinical isolates of methicillin-resistant Staphylococcus aureus P4650 in presence of norfloxacin; assay type: functional
Staphylococcus aureus [5] = assay: Potentiation of norfloxacin-induced antibacterial activity against clinical isolates of methicillin-resistant Staphylococcus aureus ST2071 assessed as norfloxacin MIC by checkerboard assay; assay type: functional
Staphylococcus aureus [6] = assay: Potentiation of norfloxacin-induced antibacterial activity against clinical isolates of methicillin-resistant Staphylococcus aureus P4650 assessed as reduction in norfloxacin MIC by checkerboard assay relative to control; assay type: functional
Staphylococcus aureus [7] = assay: Antibacterial activity against clinical isolates of methicillin-resistant Staphylococcus aureus P4629 by checkerboard assay in presence of norfloxacin; assay type: functional
Staphylococcus aureus [8] = assay: Bactericidal activity against clinical isolates of methicillin-resistant Staphylococcus aureus ST2071 assessed as reduction in viability at MIC after 24 hrs by time kill kinetic analysis relative to control; assay type: functional
Staphylococcus aureus [9] = assay: Potentiation of norfloxacin-induced antibacterial activity against clinical isolates of methicillin-resistant Staphylococcus aureus ST10342 assessed as norfloxacin MIC by checkerboard assay; assay type: functional
Mus musculus [10] = assay: Toxicity in Swiss mouse infected with Staphylococcus aureus MTCC 96 assessed as mortality at 12.5 to 100 mg/kg, ip qd for 7 days post infection; assay type: organism-based; settings: in vivo, 168 h
Staphylococcus aureus [11] = assay: Antibacterial activity against clinical isolates of methicillin-resistant Staphylococcus aureus ST2071 by broth microdilution assay; assay type: functional
Staphylococcus aureus [12] = assay: Antibacterial activity against Staphylococcus aureus MTCC 96 infected in ip dosed Swiss mouse assessed as reduction in bacterial load in lung administered qd for 7 days post infection measured 24 hrs after last dose by plate counting analysis; assay type: functional, organism-based
Staphylococcus aureus [13] = assay: Antibacterial activity against clinical isolates of methicillin-resistant Staphylococcus aureus ST10760 by broth microdilution assay; assay type: functional
Staphylococcus aureus [14] = assay: Antibacterial activity against Staphylococcus aureus MTCC 96 infected in ip dosed Swiss mouse assessed as reduction in bacterial load in spleen administered qd for 7 days post infection measured 24 hrs after last dose by plate counting analysis; assay type: functional, organism-based
Staphylococcus aureus [15] = assay: Potentiation of norfloxacin-induced antibacterial activity against clinical isolates of methicillin-resistant Staphylococcus aureus P4629 assessed as reduction in norfloxacin MIC by checkerboard assay relative to control; assay type: functional
Staphylococcus aureus [16] = assay: Potentiation of norfloxacin-induced antibacterial activity against clinical isolates of methicillin-resistant Staphylococcus aureus ST10342 assessed as reduction in norfloxacin MIC by checkerboard assay relative to control; assay type: functional
Staphylococcus aureus [17] = assay: Antibacterial activity against clinical isolates of methicillin-resistant Staphylococcus aureus ST10342 by checkerboard assay in presence of norfloxacin; assay type: functional
Staphylococcus aureus [18] = assay: Antibacterial activity against clinical isolates of methicillin-resistant Staphylococcus aureus P4423 by broth microdilution assay; assay type: functional
Staphylococcus aureus [19] = assay: Antibacterial activity against clinical isolates of methicillin-resistant Staphylococcus aureus P4629 by broth microdilution assay; assay type: functional
Staphylococcus aureus [20] = assay: Potentiation of norfloxacin-induced antibacterial activity against clinical isolates of methicillin-resistant Staphylococcus aureus P4423 assessed as reduction in norfloxacin MIC by checkerboard assay relative to control; assay type: functional
Staphylococcus aureus [21] = assay: Ratio of MIC for clinical isolates of methicillin-resistant Staphylococcus aureus P4423 to MIC for clinical isolates of methicillin-resistant Staphylococcus aureus P4423 in presence of norfloxacin; assay type: functional
Staphylococcus aureus [22] = assay: Potentiation of norfloxacin-induced antibacterial activity against clinical isolates of methicillin-resistant Staphylococcus aureus ST10760 assessed as norfloxacin MIC by checkerboard assay; assay type: functional
Staphylococcus aureus [23] = assay: Antibacterial activity against clinical isolates of methicillin-resistant Staphylococcus aureus ST2071 by checkerboard assay in presence of norfloxacin; assay type: functional
Staphylococcus aureus [24] = assay: Antibacterial activity against Staphylococcus aureus MTCC 96 by broth microdilution assay; assay type: functional
Staphylococcus aureus [25] = assay: Potentiation of norfloxacin-induced antibacterial activity against clinical isolates of methicillin-resistant Staphylococcus aureus P4650 assessed as norfloxacin MIC by checkerboard assay; assay type: functional
Staphylococcus aureus [26] = assay: Antibacterial activity against Staphylococcus aureus MTCC 96 infected in ip dosed Swiss mouse assessed as reduction in bacterial load in liver administered qd for 7 days post infection measured 24 hrs after last dose by plate counting analysis; assay type: functional, organism-based
Staphylococcus aureus [27] = assay: Antibacterial activity against clinical isolates of methicillin-resistant Staphylococcus aureus P4650 by broth microdilution assay; assay type: functional
Staphylococcus aureus [28] = assay: Ratio of MIC for clinical isolates of methicillin-resistant Staphylococcus aureus ST2071 to MIC for clinical isolates of methicillin-resistant Staphylococcus aureus ST2071 in presence of norfloxacin; assay type: functional
Staphylococcus aureus [29] = assay: Ratio of MIC for clinical isolates of methicillin-resistant Staphylococcus aureus P4629 to MIC for clinical isolates of methicillin-resistant Staphylococcus aureus P4629 in presence of norfloxacin; assay type: functional
Staphylococcus aureus [30] = assay: Antibacterial activity against clinical isolates of methicillin-resistant Staphylococcus aureus ST10760 by checkerboard assay in presence of norfloxacin; assay type: functional
Staphylococcus aureus [31] = assay: Ratio of MIC for clinical isolates of methicillin-resistant Staphylococcus aureus ST10760 to MIC for clinical isolates of methicillin-resistant Staphylococcus aureus ST10760 in presence of norfloxacin; assay type: functional
Staphylococcus aureus [32] = assay: Bactericidal activity against clinical isolates of methicillin-resistant Staphylococcus aureus ST2071 assessed as reduction in viability at 0.5 MIC after 24 hrs by time kill kinetic analysis in presence of norfloxacin relative to control; assay type: functional
Staphylococcus aureus [33] = assay: Antibacterial activity against clinical isolates of methicillin-resistant Staphylococcus aureus P4650 by checkerboard assay in presence of norfloxacin; assay type: functional
Staphylococcus aureus [34] = assay: Potentiation of norfloxacin-induced antibacterial activity against clinical isolates of methicillin-resistant Staphylococcus aureus P4423 assessed as norfloxacin MIC by checkerboard assay; assay type: functional
Staphylococcus aureus [35] = assay: Ratio of MIC for clinical isolates of methicillin-resistant Staphylococcus aureus ST10342 to MIC for clinical isolates of methicillin-resistant Staphylococcus aureus ST10342 in presence of norfloxacin; assay type: functional
Staphylococcus aureus [36] = assay: Antibacterial activity against clinical isolates of methicillin-resistant Staphylococcus aureus ST10342 by broth microdilution assay; assay type: functional
Staphylococcus aureus [37] = assay: Bactericidal activity against clinical isolates of methicillin-resistant Staphylococcus aureus ST2071 assessed as reduction in viability at 0.5 MIC after 24 hrs by time kill kinetic analysis relative to control; assay type: functional
Staphylococcus aureus [38] = assay: Antibacterial activity against clinical isolates of methicillin-resistant Staphylococcus aureus P4423 by checkerboard assay in presence of norfloxacin; assay type: functional
Staphylococcus aureus [39] = assay: Potentiation of norfloxacin-induced antibacterial activity against clinical isolates of methicillin-resistant Staphylococcus aureus ST10760 assessed as reduction in norfloxacin MIC by checkerboard assay relative to control; assay type: functional
Staphylococcus aureus [40] = assay: Potentiation of norfloxacin-induced antibacterial activity against clinical isolates of methicillin-resistant Staphylococcus aureus P4629 assessed as norfloxacin MIC by checkerboard assay; assay type: functional
Staphylococcus aureus [41] = assay: Potentiation of norfloxacin-induced antibacterial activity against clinical isolates of methicillin-resistant Staphylococcus aureus ST2071 assessed as reduction in norfloxacin MIC by checkerboard assay relative to control; assay type: functional

COc1cc(OC)c([C@@H]2COc3c(cc(/C=C/C(=O)c4ccco4)c4c3C=CC(C)(C)O4)C2)cc1/C=C/C(=O)c1ccco1
Activity (Staphylococcus aureus [1]): Dose-dependent effect | Activity (Mus musculus [2]): Non-toxic | Activity (Staphylococcus aureus [3]): Dose-dependent effect | Ratio (Staphylococcus aureus [4]): <=4 | MIC (Staphylococcus aureus [5]): 31.2 µg/mL | fold change (FC) (Staphylococcus aureus [6]): 8 | fractional inhibitory concentration index (FICI) (Staphylococcus aureus [7]): 0.312 | fold change (FC) (Staphylococcus aureus [8]): 2 | MIC (Staphylococcus aureus [9]): 31.2 µg/mL | Activity (Mus musculus [10]): Non-toxic | MIC (Staphylococcus aureus [11]): 50 µg/mL (≈ 84.4 µM) | Activity (Staphylococcus aureus [12]): Dose-dependent effect | MIC (Staphylococcus aureus [13]): 50 µg/mL (≈ 84.4 µM) | Activity (Staphylococcus aureus [14]): Dose-dependent effect | fold change (FC) (Staphylococcus aureus [15]): 16 | fold change (FC) (Staphylococcus aureus [16]): 8 | fractional inhibitory concentration index (FICI) (Staphylococcus aureus [17]): 0.375 | MIC (Staphylococcus aureus [18]): 50 µg/mL (≈ 84.4 µM) | MIC (Staphylococcus aureus [19]): 25 µg/mL (≈ 42.2 µM) | fold change (FC) (Staphylococcus aureus [20]): 8 | Ratio (Staphylococcus aureus [21]): <=4 | MIC (Staphylococcus aureus [22]): 62.5 µg/mL | fractional inhibitory concentration index (FICI) (Staphylococcus aureus [23]): 0.312 | MIC (Staphylococcus aureus [24]): 25 µg/mL (≈ 42.2 µM) | MIC (Staphylococcus aureus [25]): 31.2 µg/mL | Activity (Staphylococcus aureus [26]): Dose-dependent effect | MIC (Staphylococcus aureus [27]): 25 µg/mL (≈ 42.2 µM) | Ratio (Staphylococcus aureus [28]): <=4 | Ratio (Staphylococcus aureus [29]): <=4 | fractional inhibitory concentration index (FICI) (Staphylococcus aureus [30]): 0.375 | Ratio (Staphylococcus aureus [31]): <=4 | fold change (FC) (Staphylococcus aureus [32]): <16 | fractional inhibitory concentration index (FICI) (Staphylococcus aureus [33]): 0.375 | MIC (Staphylococcus aureus [34]): 31.2 µg/mL | Ratio (Staphylococcus aureus [35]): <=4 | MIC (Staphylococcus aureus [36]): 50 µg/mL (≈ 84.4 µM) | fold change (FC) (Staphylococcus aureus [37]): <=1.52 | fractional inhibitory concentration index (FICI) (Staphylococcus aureus [38]): 0.375 | fold change (FC) (Staphylococcus aureus [39]): 8 | MIC (Staphylococcus aureus [40]): 31.2 µg/mL | fold change (FC) (Staphylococcus aureus [41]): 16
